Tests used:
isolated chloroplasts = test: Oxygen evolution bioassay, phytotoxicity (isolated chloroplasts); type: cell-based, Spinach (Spinacia oleracea L. var. Melody)
Description: The following procedure for the preparation of chloroplasts to use in an oxygen electrode is similar to that of Gupta et al., "Development and Use of Chlorotetracycline Fluorescence as a Measurement Assay of Chloroplast Envelope-Bound Mg^2+, "Plant Physiol. 89, (1989) 753-761. Spinach (Spinacia oleracea L. var. `Melody`) was grown in 1:1 peat/vermiculite potting mix in a growth chamber with a 10 hour light period. The chamber temperature was maintained at 21° C. (day) and 16° C. (night) during the growth period. All plants were used for chloroplast isolation after 6-8 weeks of growth.
In order to obtain an enriched chloroplast fraction, about 12 g of deribbed spinach leaves were thoroughly washed and surface dried. The leaves were then cut into small pieces, each about 1/2 inch square, and were placed in a small blender jar containing 50 mL of chilled homogenization medium (0.33M sorbitol, 50 mM Hepes-NaOH, pH 6.8, 2mM Na2 EDTA, 1 mM MnCl2, 1 mM MgCl2). The tissue was blended twice for three second intervals on high speed in a blender. The resulting homogenate was filtered through four layers of cheesecloth and two layers of miracloth (Behring Diagnostics, La Jolla, Calif.) into two chilled 30 mL glass centrifuge tubes. The filtered solution was centrifuged for 1.0 minute at 750 g (2,200 RPM) in a JS 13.1 swinging bucket rotor in a Beckman J2-21M centrifuge (Beckman Instruments, Inc., Somerset, N.J.). The supernatant was then decanted and the pellet was gently resuspended by swirling at 0° C. About 15 mL of homogenization medium was added to each tube of chloroplasts before the chloroplasts were layered onto a 40% Percoll gradient (6 mL Percoll, 9 mL homogenization medium, and 0.03 g bovine serum albumin) in a 30 mL glass centrifuge tube. These tubes were centrifuged for 4.0 minutes at 2500 g (4000 RPM) in a JS 13.1 swinging bucket rotor in a Beckman J2-21M centrifuge. The supernatant was removed and the resulting pellet was resuspended in a small amount of homogenization medium (about 500 microliters).
Plastid concentration was generally expressed on a chlorophyll basis. Chlorophyll was determined by the method of Arnon "Copper Enzymes in Isolated Chloroplasts, Polyphenol Oxidase in Beta Vulgaris," Plant Physiol. 24, (1949) 1-15. About 50 microliters of chloroplast stock suspension was added to 10 mL of 80% acetone and this solution was incubated 5.0 minutes in the dark and then centrifuged for 5.0 minutes at 500 g (1630 RPM) in a Beckman GP centrifuge. The absorbance of the acetone-chloroplast solution was monitored at 645 nm, at 663 nm and at 730 nm. The chlorophyll concentration was then calculated as 10× [(absorbance at 645 nm×20.2)+(absorbance at 663 nm×8.02)--background at 730 nm]. This gave the amount of chlorophyll in micrograms for the original 50 microliters of chloroplasts. The concentration of chloroplasts was then adjusted with homogenization medium so that 50 microliters of suspension contained 26 micrograms of chlorophyll. These chloroplasts were only active for 11/2 to 2 hours and were therefore used immediately.
An oxygen electrode (Hansatech Instruments Ltd., Kings Lynn, Norfolk, England) was used to measure oxygen evolution from isolated chloroplasts. For a detailed discussion of the method see, D. Walker, "The Use of the Oxygen Electrode and Fluorescence Probes in Simple Measurements of Photosynthesis," supra. A saturated KCl solution was placed in the electrode well and a one-inch square of rolling paper or lens paper was placed in to the electrode well so that it soaked up KCl and formed an ionic bridge. A one-inch square of teflon membrane was then prepared, being careful not to touch its surface, and was placed over the soaked paper. Using the membrane applicator, an O ring was placed over the head of the electrode, thereby securing paper and membrane across the electrode. The CB-1D control box was turned on and the system was allowed to warm up approximately one hour before calibration. […]

[1] = system: Helminthosporium carbonum; test: Antifungal bioassay (MCIC, spore germination); type: cell-based; details: 10^6 spores/test; mean after 24 hours of treatment
Description: (§1) Fungi were grown on an appropriate medium, in this case a potato dextrose agar plate, for several weeks. At the end of that period, the plate was flooded with about 5 mL of sterile distilled water to harvest spores. The spore concentration was determined by use of a hemocytometer and the spore suspension was stored in a sterile tube at 4° C. until it was needed. Then 82 microliters of potato dextrose broth and 3 microliters of spore suspension (ranging from 10^5 to 10^7 spores total) were added to 12 wells in a 96 well microtiter plate for each AMPPP to be tested, with 1-4 replicate sets of 12 wells prepared for each AMPPP within a single experiment. In several instances, more than one spore concentration was used in order to determine the efficacy of certain AMPPPs as a function of the number of target spores. Stock solutions of each AMPPP were prepared at a concentration of 1 mg/mL and 0-15 microliters of each peptide stock solution were added to a single well in the microtiter plate followed by a sufficient volume of water to bring the total well volume to 100 microliters. […] Typical peptide volumes assayed were 0, 1, 2, 3, 4, 5, 6, 7, 8, 9, 10, and 15 microliters, which corresponds to a final peptide concentration in the range of 0-150 micrograms/mL. The microtiter plates were sealed with parafilm and incubated at room temperature for 48 hours. The fungal growth was observed after 24 and 48 hours by microscope using a 4× and/or a 10× objective lens. The amount of spore germination and fungal growth was recorded as a quantitative measurement at each observation time using a system of pluses and minuses: [-] meant no germination having occurred, [+] meant swollen spores with an extended germ tube, [++] meant the beginnings of mycelial growth with the overall appearance of a loose lattice, and [+++] meant a dense mycelial growth with the overall appearance of a thick opaque meshwork. The MCIC value for each AMPPP tested was then recorded, where the MCIC value is defined as the lowest peptide concentration at which no spore germination occurred (rating=[-]). […]

Cercospora sp. = test: Antifungal bioassay (MCIC, spore germination); type: cell-based; details: 10^6 spores/test; mean after 24 hours of treatment
Description: as §1

Trichoderma reesei = test: Antifungal bioassay (MCIC, spore germination); type: cell-based; details: 10^6 spores/test; mean after 24 hours of treatment
Description: as §1

In the case of “Met-Mag 1 dimer (head-to-tail) [Peptide No. 9]”, the “inhibition of oxygen evolution” value (isolated chloroplasts) is reported as 100%, the “MCIC Values With: Helminthosporium carbonum” value [1] is reported as 63+/-29 micrograms per mL and the “MCIC Values With: Cercospora sp.” value (Cercospora sp.) is reported as 25+/-10 micrograms per mL. For the same substance, the “MCIC Values With: Trichoderma reesei” value (Trichoderma reesei) was 24+/-12 micrograms per mL.

— patent US5519115A, “Reverse antimicrobial peptides” (priority 1993, dated 1996)
